Results as given in US5017568A, “Steriod 5-alpha-reductase inhibitors” (SmithKline Beecham Corporation, priority 1990, dated 1991).
Entries after “also recorded” stand apart in the source; their conditions may differ. Where two headings read alike, the source gives them in different places.

Assays:
[1] = target: T1, human prostatic steroid 5-α-reductase (Homo sapiens, UniProt P31213); assay: Inhibition of human prostatic steroid 5-α-reductase (conversion of [14C]-testosterone, prostatic particulates); type: biochemical; conditions: for Ki: pH 5.0, 37° C., competitive versus testosterone assumed, Dixon analysis, read-out: Inhibition Constants of Human Prostatic Steroid 5-α-Reductase, Ki
T1 construct: Prostatic particles were obtained by differential centrifugation; from tissue; host or cells: hyperplastic human prostate, particulate fraction (140,000 x g pellet)
T1 sequence (P31213 1-254): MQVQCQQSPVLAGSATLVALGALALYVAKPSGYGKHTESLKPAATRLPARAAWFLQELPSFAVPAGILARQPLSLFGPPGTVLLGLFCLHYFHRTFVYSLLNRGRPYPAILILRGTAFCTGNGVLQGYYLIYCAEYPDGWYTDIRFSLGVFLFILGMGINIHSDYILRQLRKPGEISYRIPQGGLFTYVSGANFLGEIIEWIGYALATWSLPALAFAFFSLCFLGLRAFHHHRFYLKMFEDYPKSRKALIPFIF
Protocol: Such diseases and conditions include acne vulgaris, seborrhea, female hirsutism, prostate diseases such as benign prostatic hypertrophy and prostatic adenocarcinoma and male pattern baldness. The potency of several compounds of the invention was tested for potency in inhibiting human steroid 5-α-reductase using tissue from hyperplastic human prostates. In determining potency in inhibiting the human enzyme, the following procedure was employed:
Frozen human prostates were thawed and minced into small pieces (5 mm^3). The tissue was homogenized in 3 to 5 volumes of 20 mM potassium phosphate, pH 6.5, buffer containing 0.33 M sucrose, 1 mM dithiothreitol, and 50 μM NADPH with a Brinkmann Polytron (Sybron Corporation, Westbury, N.Y.). The solution was subjected to sonication for 3 to 5 minutes with a Sonifier Branson Sonic Power Co.) followed by hand homogenization in a glass-to-glass Dounce homogenizer (Kontes Glass Company, Vineland, N.J.).
Prostatic particles were obtained by differential centrifugation at 600 or 1,000 x g for 20 minutes and 140,000 x g for 60 minutes at 4° C. The pellet obtained from the 140,000 x g centrifugation was washed with 5 to 10 tissue volumes of the buffer described above and recentrifuged at 140,000 x g. The resulting pellet was suspended in 20 mM potassium phosphate buffer, pH 6.5, containing 20% glycerol, 1 mM dithiothreitol, and 50 μM NADPH. The suspended particulate solution was stored at -80° C.
A constant amount of [^14 C]-testosterone (52 to 55 mCi/mmol, New England Nuclear, Boston, MA) in ethanol and varying amounts of the potential inhibitor in ethanol were deposited in test tubes and concentrated to dryness in a SAVANT Speed Vac. To each tube was added buffer, 20 μl of 10 mM NADPH and an aliquot of prostatic particulate solution to a final volume of 1.0 ml of 50 mM sodium citrate, pH 5.0. After incubating the solution at 37° C. for 20 to 30 minutes the reaction was quenched by the addition of 4 ml ethyl acetate and 0.25 μmol each of testosterone, dihydrotestosterone, androstanediol, and androstanedione as carriers. The organic layer was removed to a second test tube and evaporated to dryness in a Speed Vac. The residue was dissolved in 20 to 30 μl chloroform, spotted on an individual lane of a 20 x 20 cm prechannelled silica gel TLC plate (Si 250F PA, Baker Chemical) and developed twice with acetone:chloroform (1:9). The radiochemical content in the bands of the substrate and the products was determined with a BIOSCAN Imaging Scanner (Bioscan, Inc., Washington, D.C.). The percent of recovered radiolabel converted to product was calculated, from which enzyme activity was determined. All incubations were conducted such that no more than 12% of the substrate (testosterone) was consumed.
The experimentally obtained data was computer fitted to a linear function by plotting the reciprocal of the enzyme activity (1/velocity) against the variable inhibitor concentration (Dixon, M. (1953), Biochem. J., 55, 170). Assuming that the steroidal inhibitor is a competitive inhibitor against testosterone, a value for the inhibition constant (Ki) can be calculated from equation 1:
Ki =(B/A)/[…]) Equation 1

steroid 5-α-reductase [2] = assay: In vivo inhibition of steroid 5-α-reductase: prostatic DHT (and testosterone) levels in rats; set-up: species or system rat
Protocol: Certain compounds of the invention also were tested for their in vivo potency in inhibiting steroid 5-α-reductase activity. Male Charles River CD rats, 48 days old, weighing approximately 200 gm were administered 10 mg/kg of N,N-diisopropyl androst-3,5-diene-17β-carboxamide-3-carboxylic acid dissolved in propylene glycol and diluted in normal saline. Following compound administration the animals were sacrificed, the ventral prostates were excised, and DHT levels were measured by the following procedure.
Prostate tissue was excised, trimmed, weighed, minced and washed with phosphate buffer. The tissue then was homogenized in phosphate buffer and extracted by addition of ethyl acetate and mixing on an orbital mixer for forty-five minutes. The ethyl acetate was evaporated, the residue was reconstituted in ethanol, and was centrifuge filtered using […] filter paper. The components then were separated using reverse-phase HPLC collecting the DHT fraction. The fraction was reduced to dryness and reconstituted in standard DHT assay buffer available from Amersham. DHT levels then were measured using standard techniques such as radioimmunoassay.
Using procedures similar to those described above the in vivo effects of 17β-N-t-butylcarbox-amide-androst-3,5-diene-3-carboxylic acid also were studied. Rats received a single oral dose of vehicle or 5, 10, 20 or 50 mg/kg of this compound.

steroid-5-α-reductase = assay: In vitro steroid 5-α-reductase inhibition; type: biochemical; conditions: in words
steroid 5-α-reductase [3] = conditions: cited from earlier work; for mode of 5-α-reductase inhibition: in words
ventral prostate = assay: Effect of repeated dosing on prostatic growth / ventral prostate weight in rats; type: in vivo, rat; conditions: for ventral prostate weight, percent of control: rats, two weeks
Protocol: N,N diisopropyl-androst-3,5 diene 17β-carboxamide-3-carboxylic acid also was tested for its effects on prostatic growth.

seminal vesicle = assay: Effect of repeated dosing on seminal vesicle weight in rats; type: in vivo, rat; conditions: rats, 1, 5, 10, 25 or 50 mg/kg twice daily, two weeks
[4] = Irreversible, read-out: 5-α-reductase inhibition constant (Table 1)

`CC(C)N(C(=O)[C@H]1CC[C@H]2[C@@H]3CC(C(F)(F)F)=C4C=C(C(=O)O)CC[C@]4(C)[C@H]3CC[C@]12C)C(C)C` showed a Ki [1] of 900 nM.

For `COC(=O)C1=CC2=CC[C@H]3[C@@H]4CC[C@H](C(=O)N(C(C)C)C(C)C)[C@@]4(C)CC[C@@H]3[C@@]2(C)CC1` [methyl ester of the above compound, 3-Carbomethoxy-androst-3,5-diene-17β-N,N -diisopropylcarboxamide], the “decrease of prostatic DHT levels relative to vehicle-treated controls” value (steroid 5-α-reductase [2]; rats, single 10 mg/kg dose, after six hours) was “forty eight”, the “steroid 5-α-reductase inhibition in vivo” value (steroid 5-α-reductase [2]; rats, single 10 mg/kg dose, in words) was “significant enzyme inhibition” and the “steroid-5-α-reductase inhibition in vitro” value (steroid-5-α-reductase) was “does not inhibit steroid-5-α-reductase in vitro”.

With `CCOC(=O)C1=CC2=CC[C@H]3[C@@H]4CC[C@H](C(=O)N(C(C)C)C(C)C)[C@@]4(C)CC[C@@H]3[C@@]2(C)CC1` the Ki [1] was 4000 nM.

In the case of `CC(CO)[C@H]1CC[C@H]2[C@@H]3CC[C@H]4C(=[N+]=[N-])C(=O)CC[C@]4(C)[C@H]3CC[C@]12C` (some centres unmarked) [(3)], the Ki (steroid 5-α-reductase [3]; Irreversible, Blohm, et al., 1980, read-out: 5-α-reductase inhibition constant (Table 1)) is listed as 35 nM and the “mode of 5-α-reductase inhibition” value (steroid 5-α-reductase [3]) is listed as “Irreversible; also recorded: potent, time-dependent inhibitor”.

For `CC(C)N(C(=O)[C@H]1CC[C@H]2[C@@H]3CC=C4C=C(C(=O)O)C=C[C@]4(C)[C@H]3CC[C@]12C)C(C)C`, the Ki [1] was 50 nM.

For `CC(C)(C)NC(=O)[C@H]1CC[C@H]2[C@@H]3CC=C4C=C(C(=O)O)CC[C@]4(C)[C@H]3CC[C@]12C` [N-t-Butyl Androst-3,5-diene-17β-carboxamide-3-Carboxylic Acid], the “prostate dihydrotestosterone levels, percent of controls” value (steroid 5-α-reductase [2]; rats, 10 mg/kg, all time points from two to eighteen hours) was “approximately sixty”, the prostate testosterone levels (steroid 5-α-reductase [2]; rats, 10 mg/kg, over twenty four hours) was “viable without consistent trends” and the “return of dihydrotestosterone levels to control values” (steroid 5-α-reductase [2]; rats, 10 mg/kg, twenty-four hours post treatment) was “returned to control values”. The prostate testosterone levels (steroid 5-α-reductase [2]; rats, single oral dose 5, 10, 20 or 50 mg/kg) was “remained unaffected”, the “prostate dihydrotestosterone levels, percent of controls” value (steroid 5-α-reductase [2]; rats, single oral dose 5, 10, 20 or 50 mg/kg (all doses)) was “approximately fifty” and the “ventral prostate weight, percent of control” value (ventral prostate; 5 mg/kg twice daily) was “ninety”. The “ventral prostate weight, percent of control” value (ventral prostate; 10 and 50 mg/kg twice daily) was “sixty five” and the seminal vesicle weights (seminal vesicle) was “significantly reduced at all treatment levels”.

With `CC(C)(C)NC(=O)[C@H]1CC[C@H]2[C@@H]3CC=C4C=C(C(=O)O)CC[C@]4(C)[C@H]3CC[C@]12C` [drawing 35] the Ki [1] was 30 nM.

With `C[C@]12CC[C@H]3[C@@H](CCC4=CC(=O)CC[C@@]43C)[C@@H]1CC[C@@H]2O` [testosterone, reference compound] the Km ([1]; determined in a separate experiment, read-out: Km of the substrate (testosterone)) was 4.5 µM.

With `CC(C)N(C(=O)[C@H]1CC[C@H]2[C@@H]3CC=C4C=C(C(=O)O)CC[C@]4(C)[C@H]3CC[C@]12C)C(C)C` [N,N-Diisopropyl-androst-3,5-diene-17β-carboxamide-3-carboxylic acid] the “duration of decreased DHT levels” value (steroid 5-α-reductase [2]; male CD rats, 10 mg/kg) was “greater than eight”, the “decrease of prostatic DHT levels relative to vehicle-treated controls” value (steroid 5-α-reductase [2]; male CD rats, 10 mg/kg, four hours after administration) was “forty” and the “return of prostatic DHT levels to control” value (steroid 5-α-reductase [2]; male CD rats, 10 mg/kg, twenty four hours after treatment) was “had returned to control levels”. The prostatic growth (ventral prostate; immature rats, 0.5 to 50 mg/kg twice daily oral, fourteen days) was “dose dependent decrease in prostatic growth” and the “decrease of prostate weight versus controls” value (ventral prostate; immature rats, maximum dose group (50 mg/kg), twice daily oral, fourteen days) was “forty to fifty”.

`CC(C)N(C(=O)[C@H]1CC[C@H]2[C@@H]3CC[C@H]4C(F)=C(C(=O)O)CC[C@]4(C)[C@H]3CC[C@]12C)C(C)C` gave a Ki [1] of 26 nM.

In the case of `CC(=O)[C@H]1CC[C@H]2[C@@H]3CC=C=CC(=O)CCC(=O)[C@H]3CC[C@]12C` [(2)], the Ki (steroid 5-α-reductase [3]; [4]) is listed as 1000 nM and the “mode of 5-α-reductase inhibition” value (steroid 5-α-reductase [3]) is listed as “Irreversible; also recorded: affinity label for 5 -α-reductase”.

With `CC(C)(C)NC(=O)[C@H]1CC[C@H]2[C@@H]3CC[C@H]4C=C(C(=O)O)CC[C@]4(C)[C@H]3CC[C@]12C` the Ki [1] was 110 nM.

For `C[C@]12CC[C@H]3[C@@H](CCC4=CC(=O)CC[C@@]43C)[C@@H]1CC[C@@H]2C(=O)O` [(1)], the Ki (steroid 5-α-reductase [3]; Hsia and Voight 1973, read-out: K1) is given as 1100 nM.

`C[C@H](CO)[C@H]1CC[C@H]2[C@@H]3CC[C@H]4C(F)=C(C(=O)O)CC[C@]4(C)[C@H]3CC[C@]12C` gave a Ki [1] of 2000 nM.

For `CCN(CC)C(=O)[C@H]1CC[C@H]2[C@@H]3CC[C@H]4N(C)C(=O)CC[C@]4(C)[C@H]3CC[C@]12C` [(4)], the Ki (steroid 5-α-reductase [3]; Liang, et al., 1983, read-out: 5-α-reductase inhibition constant (Table 1)) is listed as 5 nM.

For `C=C1C[C@@H]2[C@H](CC[C@@]3(C)[C@H]2CC[C@]3(OC(C)=O)C(C)=O)[C@@]2(C)CCC(=O)C=C12` [(5)], the Ki (steroid 5-α-reductase [3]; [4]) is given as 1250 nM and the “mode of 5-α-reductase inhibition” value (steroid 5-α-reductase [3]) is given as “Irreversible; also recorded: time-dependent inactivator”.
